Laboratory results: patent US10030027B2, “Soluble guanylate cyclase stimulators” (MERCK SHARP & DOHME CORP., priority 2015, dated 2018)
Like-named read-outs stand apart in the source and are kept apart here.

What was measured:
sGC α1/β1 heterodimer = sGC α1/β1 heterodimer (Homo sapiens (Human), UniProt Q02108+Q02153); assay: Cell-based sGC functional assay (cyclic GMP assay for sGC activator: CASA assay); conditions: CHO-K1/sGC cells; for Emax: read-out: % Activation; for EC50: inflection point, 4P fit, read-out: IP
Method in brief: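 CHO-K1 cells stably expressing sGC α1/β1 were pre-incubated with or without 1 μM DETA-NO (30 min, 25 °C), then exposed to compounds for 1 hr at 37 °C with 0.5 mM IBMX. Intracellular cGMP was read by HTRF and expressed as a percentage of a reference heme-dependent activator's maximum.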

[1] = biological target: human recombinant sGC enzyme (Homo sapiens (Human), UniProt Q02108+Q02153); assay: Size Exclusion Chromatography (SEC) competition binding assay using [3H] Ex-77B as the radioligand; conditions: [3H] Ex-77B radioligand, 24 hours at 37° C.
Method in brief: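 Recombinant human sGC binding measured by competition against tritiated Ex-77B radioligand, with non-specific binding defined by 1 μM unlabeled Ex-77B.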

[2] = CHO-K1, activity expressed as percentage of compound A (standard)

| Structure (SMILES) | Emax (sGC α1/β1 heterodimer; [2]) [%] | EC50 (sGC α1/β1 heterodimer) [nM] | Ki [1] [nM] | Emax (sGC α1/β1 heterodimer; activity expressed as percentage of compound A (standard)) [%] |
| --- | --- | --- | --- | --- |
| CC(C)(Cc1csc([C@]2(C)C(=O)Nc3nc(-c4nn(Cc5c(F)ccc(F)c5F)c5ccccc45)nc(N)c32)n1)C(=O)O [Example 224A, (S)-3-(2-{4-amino-5-methyl-6-oxo-2-[1-(2,3,6-trifluorobenzyl)-1H-indazol-3-yl]-6,7-dihydro-5H-pyrrolo[2,3-d]pyrimidin-5-yl}-1,3-thiazol-4-yl)-2,2-dimethyl-propanoic acid] | 111 | 14 | 0.067 |  |
| Cc1cccc(Cn2nc(-c3nc(N)c4c(n3)NC(=O)[C@@]4(C)c3ccc(CCC(=O)O)cc3)c3ccccc32)c1 [Example 225B, (S)-3-(4-{4-amino-5-methyl-2-[1-(3-methylbenzyl)-1H-indazol-3-yl]-6-oxo-6,7-dihydro-5H-pyrrolo[2,3-d]pyrimidin-5-yl}phenyl)propanoic acid] | 140 | 460 | 0.342 |  |
| Cc1cccc(Cn2nc(-c3nc(N)c4c(n3)NC(=O)C4(C)c3nc(CC(C)(C)C(=O)O)co3)c3ccccc32)c1 (stereo not drawn) [Example 226A, 3-(2-{4-amino-5-methyl-2-[1-(3-methylbenzyl)-1H-indazol-3-yl]-6-oxo-6,7-dihydro-5H-pyrrolo[2,3-d]pyrimidin-5-yl}-1,3-oxazol-4-yl)-2,2-dimethyl-propanoic acid] | 112 | 355 | 0.176 |  |
| C[C@@]1(c2ccc(CCC(=O)O)cc2)C(=O)Nc2nc(-c3nn(CC4CCCC4)c4ccccc34)nc(N)c21 [Example 227B, (S)-3-(4-{4-amino-2-[1-(cyclopentyl-methyl)-1H-indazol-3-yl]-5-methyl-6-oxo-6,7-dihydro-5H-pyrrolo[2,3-d]pyrimidin-5-yl}phenyl)propanoic acid] | 63.5 | 74 | 0.146 |  |
| CC(C)(Cc1coc(C2(C)C(=O)Nc3nc(-c4nn(CC5CCCCC5)c5ccccc45)nc(N)c32)n1)C(=O)O (stereo not drawn) [Example 228A, 3-(2-{4-amino-2-[1-(cyclohexyl-methyl)-1H-indazol-3-yl]-5-methyl-6-oxo-6,7-dihydro-5H-pyrrolo[2,3-d]pyrimidin-5-yl}-1,3-oxazol-4-yl)-2,2-dimethyl-propanoic acid] | 95 | 64 | 0.079 |  |
| C[C@@]1(c2ccc(CCC(=O)O)cc2)C(=O)Nc2nc(-c3nn(Cc4ncccc4F)c4ccccc34)nc(N)c21 [Example 232B, (S)-3-{4-[4-amino-2-{1-[(3-fluoropyridin-2-yl)methyl]-1H-indazol-3-yl}-5-methyl-6-oxo-6,7-dihydro-5H-pyrrolo[2,3-d]pyrimidin-5-yl]phenyl}propanoic acid] | 89.1 | 4150 | 0.085 |  |
| Cc1cccc(Cn2nc(-c3nc(N)c4c(n3)NC(=O)C4(C)c3nc(CC(C)(C)C(=O)O)co3)c3ccccc32)c1F (stereo not drawn) [Example 233A, 3-(2-{4-amino-2-[1-(2-fluoro-3-methylbenzyl)-1H-indazol-3-yl]-5-methyl-6-oxo-6,7-dihydro-5H-pyrrolo[2,3-d]pyrimidin-5-yl}-1,3-oxazol-4-yl)-2,2-dimethyl-propanoic acid] | 141 | 204 | 0.083 |  |
| CC1(c2nc(C[C@H](N)C(=O)O)cs2)C(=O)Nc2nc(-c3nn(Cc4ccccc4F)c4cc(Cl)ccc34)nc(N)c21 (stereo partly drawn) [Example 234B, (S)-3-(2-{4-Amino-2-[6-chloro-1-(2-fluorobenzyl)-1H-indazol-3-yl]-5-methyl-6-oxo-6,7-dihydro-5H-pyrrolo[2,3-d]pyrimidin-5-yl}-1,3-thiazol-4-yl)-D-alanine] | 135 | 265 | 0.947 |  |
| CC(C)(Cc1csc([C@]2(C)C(=O)Nc3nc(-c4nn(Cc5ccccc5F)c5cc(Cl)ccc45)nc(N)c32)n1)c1nn[nH]n1 [Example 238A, (S)-4-amino-2-[6-chloro-1-(2-fluorobenzyl)-1H-indazol-3-yl]-5-methyl-5-{4-[2-methyl-2-(2H-tetrazol-5-yl)propyl]-1,3-thiazol-2-yl}-5,7-dihydro-6H-pyrrolo[2,3-d] pyrimidin-6-one] | 99.5 | 609 | 0.095 |  |
| C[C@@]1(c2ccc(CCc3nn[nH]n3)cc2)C(=O)Nc2nc(-c3nn(Cc4ccccc4F)c4ncccc34)nc(N)c21 [Example 240B, (S)-4-amino-2-[1-(2-fluoro-benzyl)-1H-pyrazolo[3,4-b]pyridin-3-yl]-5-methyl-5-{4-[2-(2H-tetrazol-5-yl)ethyl]phenyl}-5,7-dihydro-6H-pyrrolo[2,3-d] pyrimidin-6-one] | 104 | 749 | 0.075 |  |
| CC(C)(Cc1csc([C@]2(C)C(=O)Nc3nc(-c4nn(Cc5ccccc5F)c5ncccc45)nc(N)c32)n1)c1nn[nH]n1 [Example 241A, (S)-4-amino-2-[1-(2-fluoro-benzyl)-1H-pyrazolo[3,4-b]pyridin-3-yl]-5-methyl-5-{4-[2-methyl-2-(2H-tetrazol-5-yl)propyl]-1,3-thiazol-2-yl}-5,7-dihydro-6H-pyrrolo[2,3-d] pyrimidin-6-one] | 94.8 | 403 | 0.121 |  |
| C[C@@]1(c2ccc(CCc3nn[nH]n3)cc2)C(=O)Nc2nc(-c3nn(Cc4ccccc4F)c4ccccc34)nc(N)c21 [Example 242B, (S)-4-amino-2-[1-(2-fluoro-benzyl)-1H-indazol-3-yl]-5-methyl-5-{4-[2-(2H-tetrazol-5-yl)ethyl]phenyl}-5,7-dihydro-6H-pyrrolo[2,3-d] pyrimidin-6-one] | 107 | 3100 | 1.11 |  |
| CC1(c2cc(-c3nn[nH]n3)ccn2)C(=O)Nc2nc(-c3nn(Cc4ccccc4F)c4cc(Cl)ccc34)nc(N)c21 (stereo not drawn) [Example 243A, 5-[4-(2H-tetrazol-5-yl)pyridin-2-yl]-4-amino-2-[6-chloro-1-(2-fluorobenzyl)-1H-indazol-3-yl]-5-methyl-5,7-dihydro-6H-pyrrolo[2,3-d] pyrimidin-6-one] | 101 | 3600 | 0.062 |  |
| CC1(c2ccc(Cc3nn[nH]n3)cc2)C(=O)Nc2nc(-c3nn(Cc4ccccc4F)c4cc(Cl)ccc34)nc(N)c21 (stereo not drawn) [Example 244A, 5-{4-[(2H-tetrazol-5-yl)methyl]phenyl}-4-amino-2-[6-chloro-2-(2-fluorobenzyl)-1H-indazol-3-yl]-5-methyl-5,7-dihydro-6H-pyrrolo[2,3-d] pyrimidin-6-one] | 93.3 | 2730 | 0.063 |  |
| CC(C)(Cc1coc(C2(C)C(=O)Nc3nc(-c4nn(Cc5ccccc5F)c5ccccc45)nc(N)c32)n1)c1nn[nH]n1 (stereo not drawn) [Example 248B, 4-Amino-2-[1-(2-fluorobenzyl)-1H-indazol-3-yl]-5-methyl-5-{4-[2-methyl-2-(2H-tetrazol-5-yl)propyl]oxazol-2-yl}-5,7-dihydro-6H-pyrrolo[2,3-d]pyrimidin-6-one] | 106 | 116 | 0.048 |  |
| CC1(c2cccc(-c3nn[nH]n3)c2)C(=O)Nc2nc(-c3nn(Cc4ccccc4F)c4cc(F)ccc34)nc(N)c21 (stereo not drawn) [Example 249B, 4-Amino-2-[6-fluoro-1-(2-fluorobenzyl)-1H-indazol-3-yl]-5-methyl-5-[3-(1H-tetrazol-5-yl)phenyl]-5,7-dihydro-6H-pyrrolo[2,3-d]pyrimidin-6-one] | 98.5 | 2620 | 0.068 |  |
| CC1(c2ccc(-c3nn[nH]n3)cc2)C(=O)Nc2nc(-c3nn(Cc4ccccc4F)c4cc(F)ccc34)nc(N)c21 (stereo not drawn) [Example 250B, 4-amino-2-[6-fluoro-1-(2-fluorobenzyl)-1H-indazol-3-yl]-5-methyl-5-[4-(1H-tetrazol-5-yl)phenyl]-5,7-dihydro-6H-pyrrolo[2,3-d] pyrimidin-6-one] | 102 | 1700 | 0.108 |  |
| CC1(c2ccc(C(=O)O)cn2)C(=O)Nc2nc(-c3nn(Cc4ccccc4F)c4cc(Cl)ccc34)nc(N)c21 (stereo not drawn) [Example 254A, 6-{4-Amino-2-[6-chloro-1-(2-fluorobenzyl)-1H-indazol-3-yl]-5-methyl-6-oxo-6,7-dihydro-5H-pyrrolo[2,3-d]pyrimidin-5-yl}pyridine-3-carboxylic acid] | 123 | 1010 | 0.199 |  |
| CC1(c2cccc(C(=O)O)n2)C(=O)Nc2nc(-c3nn(Cc4ccccc4F)c4cc(Cl)ccc34)nc(N)c21 (stereo not drawn) [Example 255A, 6-{4-Amino-2-[6-chloro-1-(2-fluorobenzyl)-1H-indazol-3-yl]-5-methyl-6-oxo-6,7-dihydro-5H-pyrrolo[2,3-d]pyrimidin-5-yl}picolinic acid] | 108 | 1480 | 0.073 |  |
| C[C@@]1(c2ccc(CCc3noc(=O)[nH]3)cc2)C(=O)Nc2nc(-c3nn(Cc4ccccc4F)c4cc(Cl)ccc34)nc(N)c21 [Example 256B, (S)-4-Amino-2-[6-chloro-1-(2-fluorobenzyl)-1H-indazol-3-yl]-5-methyl-5-{4-[2-(5-oxo-4,5-dihydro-1,2,4-oxadiazol-3-yl)ethyl]phenyl}-5,7-dihydro-6H-pyrrolo[2,3-d]pyrimidin-6-one] |  | 2050 | 0.074 | 104 |
| CC1(c2ccc(CCP(=O)(O)O)cc2)C(=O)Nc2nc(-c3nn(Cc4ccccc4F)c4cc(Cl)ccc34)nc(N)c21 (stereo not drawn) [Example 257A, [2-(4-{4-Amino-2-[6-chloro-1-(2-fluorobenzyl)-1H-indazol-3-yl]-5-methyl-6-oxo-6,7-dihydro-5H-pyrrolo[2,3-d]pyrimidin-5-yl}phenyl)ethyl]phosphonic acid] | 84.7 | 106 | 0.105 |  |
